Experimental data taken from patent publication US20220062262A1, “GSNO REDUCTASE INHIBITOR AS AN ADJUNCT THERAPY WITH REMOTE ISCHEMIC CONDITIONING AND THROMBOLYTIC REPERFUSION THERAPIES IN STROKE” (KING ABDULAZIZ UNIVERSITY, priority 2020, published 2022).

Test system: pMCAL-stroke (permanent occlusion of distal MCA trunk)
Assay: Permanent MCA occlusion (pMCAo/pMCAL) stroke model in adult male and ovariectomized female mice
Format: in vivo
Details: 2.5 mg/kg IV 1 h after stroke, repeated daily for 2 days, males and OVX-females
Method: The procedure for pMCAo was performed in mice as reported by Hoda et al. (Stroke 2012, 43(10):2794-2799). Briefly, under anesthesia, the junction of left zygomatic arch and squamous bone was drilled to make a 2-3 mm burr hole to expose the main trunk of MCA. The left MCA distal to the lenticulostriate branches was electrocauterized carefully without bleeding. The wound was closed, and mice were put under post-op recovery as described above. Sham-operated group underwent similar surgical procedures but without electrocauterization. Cortical LDF (Perimed Inc, Sweden) was performed to confirm the induction of stroke in anesthetized mice. Briefly, mice were anesthetized as above and a shallow indent was made in the parietal skull using a low-speed drill to place the LDF probe holder (PH07-6, Perimed Inc) aligning the holder hole at the stereotaxic coordinates (AP: 2-mm and lateral 3-mm with respect to bregma). The needle of LDF-probe (PH407, Perimed Inc) was inserted into the probe holder and the signal was recorded to confirm a significant drop in CBF following stroke. Mice were anesthetized as above, body temperature was maintained at 37±0.5 ° C., the skull was shaved, and a midline skin incision was made to primarily expose the MCA region. Perfusion images were acquired using PeriCam high resolution LASCA-Imager (PSI-Z system, Perimed Inc.) with a 70-mW built-in laser diode for illumination and 1388×1038 pixels CCD camera installed 10 cm above the skull (speed 19 Hz, and exposure time 6 mSec, 1.3 x 1.3 cm). Acquired video and images were analyzed for the dynamic changes in CBF. Overall perfusion of the ipsilateral ischemic hemisphere was determined, normalized with the equal size of region of interest (ROI) from the uninjured contralateral hemisphere and the relative CBF was calculated. […] Therefore, larger white area indicates higher injury and infarction volume. […] Performance of each mouse on the narrow beam was quantified by measuring the time it took for the mouse to traverse the 100-cm distance on the narrow beam and the number of foot slips that occurred in each trial. […]

## Cc1cc(C(N)=O)ccc1-n1c(CCC(=O)O)ccc1-c1ccc(-n2ccnc2)cc1 [GRI therapy, N6022]
72 h post-pMCAo
  restoration of CBF (% CBF, LSCI) vs vehicle: improved restoration of CBF in both sexes significantly
72 h post-stroke
  infarct progression (TTC infarct volume): significantly prevented the infarct progression sex-independently in both groups
  motor function, narrow beam walk test (time to traverse, foot slips): equally effective in improving motor function in both sexes
